# Entries after “also recorded” stand apart in the source; their conditions may differ. Read-outs that look alike come from different tables or passages of the source.
# Columns and labels:
# [1] = Solubility; assay type: physicochemical
# [2] = test system: healthy adult subjects; experiment: QT/QTc double-blind placebo- and positive-controlled crossover trial; assay type: in vivo, human; conditions: 400 mg, single oral dose
# Protocol: The effects of Promacta® at doses up to 150 mg daily for 5 days (supratherapeutic doses) on the QT/QTc interval was evaluated in a double-blind, randomized, placebo- and positive-controlled (moxifloxacin 400 mg, single oral dose) crossover trial in healthy adult subjects.
# [3] = Clinical pharmacokinetics: absorption, distribution, metabolism, elimination (incl. radiolabel study); assay type: in vivo, human; conditions: for half-life: plasma, oral
# Protocol: Based on urinary excretion and biotransformation products eliminated in feces, the oral absorption of drug-related material following administration of a single 75 mg solution dose was estimated to be at least 52%.
# Metabolites due to glucuronidation and oxidation were also detected.
# [4] = Food effect open-label randomized crossover study; assay type: in vivo, human; conditions: standard high-fat breakfast
# Text: The calcium content of this meal may have also contributed to this decrease in exposure.
# [5] = Pharmacokinetics by race and gender; assay type: in vivo, human
# [6] = molecular target: T1, OATP1B1 (Homo sapiens, UniProt Q9Y6L6); experiment: In vitro OATP1B1 inhibition; assay type: in vitro ADME
# [7] = molecular target: T2, UGT1A1 (Homo sapiens, UniProt P22309); experiment: In vitro UGT inhibition; assay type: in vitro ADME
# Text: (§1) Monitor patients closely for signs or symptoms of excessive exposure to these drugs when concomitantly administered with Promacta®.
# [8] = molecular target: T3, UGT1A3 (Homo sapiens, UniProt P35503); experiment: In vitro UGT inhibition; assay type: in vitro ADME
# Text: as §1
# [9] = molecular target: UGT1A4 (Homo sapiens, UniProt P22310); experiment: In vitro UGT inhibition; assay type: in vitro ADME
# Text: as §1
# [10] = molecular target: UGT1A6 (Homo sapiens, UniProt P19224); experiment: In vitro UGT inhibition; assay type: in vitro ADME
# Text: as §1
# [11] = molecular target: UGT1A9 (Homo sapiens, UniProt O60656); experiment: In vitro UGT inhibition; assay type: in vitro ADME
# Text: as §1
# [12] = molecular target: UGT2B15 (Homo sapiens, UniProt P54855); experiment: In vitro UGT inhibition; assay type: in vitro ADME
# Text: as §1
# [13] = molecular target: UGT2B7 (Homo sapiens, UniProt P16662); experiment: In vitro UGT inhibition; assay type: in vitro ADME
# Text: as §1
# [14] = molecular target: T4, CYP2C8 (Homo sapiens, UniProt P10632); experiment: In vitro CYP inhibition (paclitaxel probe); assay type: in vitro ADME; conditions: paclitaxel probe substrate
# Text: (§2) Probe substrates for CYP2C8 were not evaluated in this study.
# [15] = molecular target: CYP2C9 (Homo sapiens, UniProt P11712); experiment: In vitro CYP inhibition (diclofenac probe); assay type: in vitro ADME; conditions: diclofenac probe substrate
# Text: as §2
# [16] = molecular target: CYP1A2 (Homo sapiens, UniProt P05177); experiment: In vitro oxidative metabolism; assay type: in vitro ADME
# [17] = molecular target: T4, CYP2C8; experiment: In vitro oxidative metabolism; assay type: in vitro ADME
# [18] = molecular target: T2, UGT1A1; experiment: In vitro glucuronidation; assay type: in vitro ADME
# [19] = molecular target: T3, UGT1A3; experiment: In vitro glucuronidation; assay type: in vitro ADME
# [20] = test system: human plasma proteins; experiment: In vitro plasma protein binding; assay type: in vitro ADME
# [21] = molecular target: p-glycoprotein (Pgp) (Homo sapiens, UniProt P08183); experiment: Transporter substrate assessment; assay type: in vitro ADME
# [22] = molecular target: T1, OATP1B1; experiment: Transporter substrate assessment; assay type: in vitro ADME
# [23] = test system: female rats; experiment: Early embryonic development study; assay type: in vivo, rat; conditions: highest dose, 7 times human clinical exposure (AUC); maternally toxic
# [24] = test system: pregnant rats (F0); experiment: Pre- and post-natal developmental toxicity study; assay type: in vivo, rat
# [25] = test system: rats; experiment: Platelet production in animals; assay type: in vivo, rat
# [26] = test system: mice; experiment: Platelet production in animals; assay type: in vivo, mouse
# [27] = test system: dogs; experiment: Platelet production in animals; assay type: in vivo, dog
# [28] = test system: rats; experiment: In vivo micronucleus assay; conditions: rat micronucleus, 11 times human clinical exposure (Cmax)
# [29] = test system: rats; experiment: In vivo unscheduled DNA synthesis assay; conditions: rat unscheduled DNA synthesis, 11 times human clinical exposure (Cmax)
# [30] = test system: mouse lymphoma; experiment: In vitro mouse lymphoma assay; assay type: cell-based
# [31] = test system: rats; experiment: Fertility studies in rats; assay type: in vivo, rat
# [32] = In vitro phototoxicity and photoclastogenicity; assay type: cell-based
# [33] = test system: mice; experiment: In vivo cutaneous phototoxicity; design: species or system mouse; conditions: up to 11 times human clinical exposure (AUC)
# [34] = test system: rabbits; experiment: Toxicology in rabbits; assay type: in vivo, rabbit; conditions: 1.4 times human clinical exposure (AUC)
# [35] = test system: pregnant rats; conditions: rat, in vivo
# [36] = test system: pregnant rabbits; conditions: oral 30, 80, or 150 mg/kg/day (0.1, 0.3, 0.6 times human clinical exposure, AUC)
# [37] = test system: rats; conditions: rat, in vivo
# [38] = test system: mice; conditions: mouse, in vivo
# [39] = test system: mice; conditions: mouse, in vivo; remark: listed apart in the source
# [40] = test system: rats; conditions: rat, in vivo; remark: listed apart in the source
# [41] = test system: dogs; conditions: dog, in vivo
# [42] = test system: bacterial; experiment: Bacterial mutation assay
# [43] = test system: mice; experiment: 2-year oral carcinogenicity study in mice; conditions: 2-year study, lowest dose (25 mg/kg/day)
# T4 sequence (P10632 whole entry): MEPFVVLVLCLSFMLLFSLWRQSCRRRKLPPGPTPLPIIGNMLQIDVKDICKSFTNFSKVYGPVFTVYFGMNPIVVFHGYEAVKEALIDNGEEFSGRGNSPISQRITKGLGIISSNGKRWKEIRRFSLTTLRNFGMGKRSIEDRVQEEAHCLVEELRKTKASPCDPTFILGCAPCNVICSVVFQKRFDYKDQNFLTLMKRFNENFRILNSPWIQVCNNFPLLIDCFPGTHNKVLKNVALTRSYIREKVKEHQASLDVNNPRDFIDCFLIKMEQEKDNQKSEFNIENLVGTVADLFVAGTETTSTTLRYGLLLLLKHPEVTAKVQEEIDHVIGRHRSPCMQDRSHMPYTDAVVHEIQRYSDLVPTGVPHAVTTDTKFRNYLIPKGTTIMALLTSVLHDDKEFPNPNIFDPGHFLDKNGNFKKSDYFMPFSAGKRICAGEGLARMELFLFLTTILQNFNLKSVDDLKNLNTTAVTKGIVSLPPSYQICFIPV
# T2 sequence (P22309 26-533): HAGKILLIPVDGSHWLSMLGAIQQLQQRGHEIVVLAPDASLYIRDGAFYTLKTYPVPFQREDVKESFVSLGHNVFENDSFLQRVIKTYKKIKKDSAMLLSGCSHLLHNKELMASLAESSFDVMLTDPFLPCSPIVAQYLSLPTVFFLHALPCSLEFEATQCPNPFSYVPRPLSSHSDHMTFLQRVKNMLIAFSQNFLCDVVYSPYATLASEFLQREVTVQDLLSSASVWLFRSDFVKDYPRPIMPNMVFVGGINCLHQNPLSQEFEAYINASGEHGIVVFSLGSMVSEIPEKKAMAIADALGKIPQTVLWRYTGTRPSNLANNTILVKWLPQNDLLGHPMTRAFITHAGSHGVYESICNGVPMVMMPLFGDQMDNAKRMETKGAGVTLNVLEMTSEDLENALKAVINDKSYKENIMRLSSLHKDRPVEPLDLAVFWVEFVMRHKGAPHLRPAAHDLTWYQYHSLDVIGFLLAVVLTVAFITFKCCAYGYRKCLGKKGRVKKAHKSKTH
# T3 sequence (P35503 29-534): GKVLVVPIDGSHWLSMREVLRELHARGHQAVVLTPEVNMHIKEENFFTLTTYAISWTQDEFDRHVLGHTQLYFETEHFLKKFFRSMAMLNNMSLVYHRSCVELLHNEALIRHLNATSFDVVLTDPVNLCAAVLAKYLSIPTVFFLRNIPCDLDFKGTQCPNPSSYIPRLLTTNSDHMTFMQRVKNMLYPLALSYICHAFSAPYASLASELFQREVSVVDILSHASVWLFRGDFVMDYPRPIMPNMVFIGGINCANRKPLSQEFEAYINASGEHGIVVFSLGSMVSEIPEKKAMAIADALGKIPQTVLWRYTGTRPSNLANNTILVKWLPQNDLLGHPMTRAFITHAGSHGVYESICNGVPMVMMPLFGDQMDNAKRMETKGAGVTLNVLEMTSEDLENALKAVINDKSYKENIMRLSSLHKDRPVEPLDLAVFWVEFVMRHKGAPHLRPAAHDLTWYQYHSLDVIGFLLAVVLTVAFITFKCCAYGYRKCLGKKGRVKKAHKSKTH
# T1 sequence (Q9Y6L6 whole entry): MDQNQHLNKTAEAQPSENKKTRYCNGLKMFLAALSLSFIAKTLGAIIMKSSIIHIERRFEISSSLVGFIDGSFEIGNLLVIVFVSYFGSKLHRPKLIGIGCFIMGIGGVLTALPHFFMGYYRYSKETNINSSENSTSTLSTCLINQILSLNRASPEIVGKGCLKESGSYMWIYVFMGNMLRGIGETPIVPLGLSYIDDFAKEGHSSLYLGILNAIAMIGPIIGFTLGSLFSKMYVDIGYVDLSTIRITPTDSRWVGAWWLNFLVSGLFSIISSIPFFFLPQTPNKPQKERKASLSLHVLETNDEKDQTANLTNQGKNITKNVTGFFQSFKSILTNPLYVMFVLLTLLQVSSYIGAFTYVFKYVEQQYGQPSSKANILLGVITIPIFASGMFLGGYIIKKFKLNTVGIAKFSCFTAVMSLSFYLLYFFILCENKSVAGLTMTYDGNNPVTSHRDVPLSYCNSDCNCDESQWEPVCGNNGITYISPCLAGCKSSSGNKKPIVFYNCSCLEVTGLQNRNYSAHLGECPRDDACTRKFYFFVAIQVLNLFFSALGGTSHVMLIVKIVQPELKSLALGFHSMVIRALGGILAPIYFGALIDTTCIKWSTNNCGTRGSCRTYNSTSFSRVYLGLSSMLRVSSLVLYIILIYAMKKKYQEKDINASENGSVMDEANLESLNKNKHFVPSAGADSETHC
# Sequence of CYP1A2 (P05177 whole entry): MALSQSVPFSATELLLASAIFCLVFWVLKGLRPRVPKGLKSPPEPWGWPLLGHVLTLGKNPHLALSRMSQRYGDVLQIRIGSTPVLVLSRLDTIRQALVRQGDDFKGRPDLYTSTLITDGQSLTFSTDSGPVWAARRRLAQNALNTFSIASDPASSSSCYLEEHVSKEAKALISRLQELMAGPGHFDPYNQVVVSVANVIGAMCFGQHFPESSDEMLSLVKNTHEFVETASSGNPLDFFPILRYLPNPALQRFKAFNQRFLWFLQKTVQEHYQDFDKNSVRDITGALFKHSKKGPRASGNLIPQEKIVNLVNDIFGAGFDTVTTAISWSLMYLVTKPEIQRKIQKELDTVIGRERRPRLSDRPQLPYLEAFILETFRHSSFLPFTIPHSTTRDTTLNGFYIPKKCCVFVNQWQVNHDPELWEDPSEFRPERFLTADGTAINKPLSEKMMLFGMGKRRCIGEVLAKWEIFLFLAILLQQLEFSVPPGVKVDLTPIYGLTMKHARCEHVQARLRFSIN
# Sequence of UGT1A9 (O60656 26-530): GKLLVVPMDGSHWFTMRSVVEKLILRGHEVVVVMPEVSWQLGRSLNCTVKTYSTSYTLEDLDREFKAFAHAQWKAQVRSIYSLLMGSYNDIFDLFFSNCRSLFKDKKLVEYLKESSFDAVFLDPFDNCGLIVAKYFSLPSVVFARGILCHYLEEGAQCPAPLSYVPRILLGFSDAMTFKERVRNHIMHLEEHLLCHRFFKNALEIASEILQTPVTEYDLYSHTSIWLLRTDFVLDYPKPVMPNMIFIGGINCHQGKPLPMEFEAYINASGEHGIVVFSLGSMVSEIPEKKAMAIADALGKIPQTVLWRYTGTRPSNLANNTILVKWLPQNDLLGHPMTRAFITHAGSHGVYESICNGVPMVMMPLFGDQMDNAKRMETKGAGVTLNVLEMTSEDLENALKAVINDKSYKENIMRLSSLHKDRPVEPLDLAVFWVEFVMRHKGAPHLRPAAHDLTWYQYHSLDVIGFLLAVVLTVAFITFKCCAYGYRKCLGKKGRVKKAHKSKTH
# Sequence of CYP2C9 (P11712 whole entry): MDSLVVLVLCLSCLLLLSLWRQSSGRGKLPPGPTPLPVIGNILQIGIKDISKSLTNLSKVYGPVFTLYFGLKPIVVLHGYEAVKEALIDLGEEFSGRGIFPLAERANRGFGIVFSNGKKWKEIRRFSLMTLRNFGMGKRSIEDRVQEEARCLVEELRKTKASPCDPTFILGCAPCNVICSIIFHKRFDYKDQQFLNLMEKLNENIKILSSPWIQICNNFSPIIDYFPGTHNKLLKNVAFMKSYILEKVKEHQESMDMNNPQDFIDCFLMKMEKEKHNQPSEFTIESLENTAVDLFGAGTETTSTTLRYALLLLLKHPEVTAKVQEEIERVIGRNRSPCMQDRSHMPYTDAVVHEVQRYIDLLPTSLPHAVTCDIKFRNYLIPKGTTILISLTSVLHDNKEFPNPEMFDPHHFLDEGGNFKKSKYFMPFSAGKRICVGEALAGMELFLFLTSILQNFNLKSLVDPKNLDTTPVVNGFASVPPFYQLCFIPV
# Sequence of UGT1A4 (P22310 29-534): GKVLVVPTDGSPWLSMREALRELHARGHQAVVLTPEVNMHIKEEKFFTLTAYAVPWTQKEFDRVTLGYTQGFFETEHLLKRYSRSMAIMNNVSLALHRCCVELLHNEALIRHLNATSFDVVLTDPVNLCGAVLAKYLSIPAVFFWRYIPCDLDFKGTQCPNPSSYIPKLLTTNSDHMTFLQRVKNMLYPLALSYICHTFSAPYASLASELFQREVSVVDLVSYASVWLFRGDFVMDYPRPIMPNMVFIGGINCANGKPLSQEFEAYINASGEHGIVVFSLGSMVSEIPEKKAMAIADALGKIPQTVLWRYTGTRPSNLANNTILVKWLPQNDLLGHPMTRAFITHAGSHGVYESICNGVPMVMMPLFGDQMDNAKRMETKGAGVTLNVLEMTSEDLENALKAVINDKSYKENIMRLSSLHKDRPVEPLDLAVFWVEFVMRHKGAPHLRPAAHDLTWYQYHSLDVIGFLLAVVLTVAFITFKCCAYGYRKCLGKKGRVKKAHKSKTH
# Sequence of UGT2B15 (P54855 24-530): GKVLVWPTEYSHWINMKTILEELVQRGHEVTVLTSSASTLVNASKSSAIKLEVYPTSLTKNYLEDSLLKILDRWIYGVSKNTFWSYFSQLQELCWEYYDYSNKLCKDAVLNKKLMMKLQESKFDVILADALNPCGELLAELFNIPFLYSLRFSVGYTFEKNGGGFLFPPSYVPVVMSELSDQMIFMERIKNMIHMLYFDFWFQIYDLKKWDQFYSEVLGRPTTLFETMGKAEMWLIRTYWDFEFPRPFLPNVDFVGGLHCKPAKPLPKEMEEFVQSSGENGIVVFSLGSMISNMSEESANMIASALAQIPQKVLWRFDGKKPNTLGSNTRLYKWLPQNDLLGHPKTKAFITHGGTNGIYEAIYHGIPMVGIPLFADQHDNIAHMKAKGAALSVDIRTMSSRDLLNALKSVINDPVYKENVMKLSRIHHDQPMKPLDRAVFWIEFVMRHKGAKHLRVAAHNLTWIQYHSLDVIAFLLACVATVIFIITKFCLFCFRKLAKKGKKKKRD
smiles,measurement,setting,value
"CC1=NN(c2ccc(C)c(C)c2)C(=O)/C1=N\Nc1cccc(-c2cccc(C(=O)O)c2)c1O.NCCO.NCCO [Eltrombopag olamine, 3′-{(2Z)-2-[1-(3,4-dimethylphenyl)-3-methyl-5-oxo-1,5-dihydro-4H-pyrazol-4-ylidene]hydrazino}-2′-hydroxy-3-biphenylcarboxylic acid-2-aminoethanol (1:2)]",solubility in water,[1],sparingly soluble
same,solubility in aqueous buffer,[1]; pH range of 1 to 7.4,practically insoluble
COc1c(N2C[C@@H]3CCCN[C@@H]3C2)c(F)cc2c(=O)c(C(=O)O)cn(C3CC3)c12 [moxifloxacin],QTc effect of positive control,[2],significant QTc prolongation
"CC1=NN(c2ccc(C)c(C)c2)C(=O)/C1=N\Nc1cccc(-c2cccc(C(=O)O)c2)c1O [eltrombopag, 3′-[(2Z)-[1-(3,4-dimethylphenyl)-1,5-dihydro-3-methyl-5-oxo-4H-pyrazol-4-ylidene]hydrazino]-2′-hydroxy-[1,1′-biphenyl]-3-carboxylic acid]",dose found in the urine,[3]; % of dose,31%
same,excretion via feces,[3]; % of dose,59%
same,unchanged eltrombopag in feces,[3]; % of dose,approximately 20%
same,extent of metabolism,"[3]; cleavage, oxidation, conjugation",extensively metabolized
same,share of plasma radiocarbon AUC0-∞,[3]; human radiolabel study,approximately 64%
same,renal excretion,"[3]; human, in vivo",not significantly renally excreted
same,unchanged eltrombopag in urine,"[3]; human, in vivo",not detectable
same,time of peak concentration after oral administration,"[3]; human, in vivo, po",2 to 6 h
same,half-life,"[3]; human, ITP patients",26 to 35 h
same,half-life,"[3]; human, healthy subjects",21 to 32 h
same,concentration in blood cells as % of plasma concentrations,[3]; radiolabel study,50-79%
same,oral absorption of drug-related material,"[3]; single 75 mg solution dose, from urinary excretion and fecal biotransformation products",at least 52%
same,decrease of Cmax with food,[4],65%
same,decrease of plasma AUC0-∞ with food,[4],approximately 59%
same,plasma exposure higher than in non-Asian subjects,[5]; East Asian subjects with ITP,approximately 70%
same,systemic exposure higher,[5]; healthy African-American subjects,approximately 40%
same,apparent clearance greater in males than females,"[5]; population PK model, adjusted for body weight",27%
same,inhibition of OATP1B1,[6],inhibitor
same,inhibition of UGT1A1,[7],inhibitor
same,inhibition of UGT1A3,[8],inhibitor
same,inhibition of UGT1A4,[9],inhibitor
same,inhibition of UGT1A6,[10],inhibitor
same,inhibition of UGT1A9,[11],inhibitor
same,inhibition of UGT2B15,[12],inhibitor
same,inhibition of UGT2B7,[13],inhibitor
same,inhibition of CYP2C8,[14],inhibitor
same,inhibition of CYP2C9,[15],inhibitor
same,role of CYP1A2 in oxidative metabolism,[16],responsible; also recorded: involved
same,role of CYP2C8 in oxidative metabolism,[17],responsible; also recorded: involved
same,role of UGT1A1 in glucuronidation,[18],responsible
same,role of UGT1A3 in glucuronidation,[19],responsible
same,plasma protein binding,[20],highly bound to plasma proteins
same,bound to human plasma proteins,[20]; in vitro,> 99%
same,substrate for p-glycoprotein (Pgp),[21],not a substrate
same,substrate for OATP1B1,[22],not a substrate
same,early embryonic development findings,[23],Increased pre- and post-implantation loss and reduced fetal weight
same,plasma concentrations in pups versus dose,"[24]; 0.8 and 2 times human clinical exposure (AUC), drug given to F0 dams",increased with dose
same,presence in plasma of offspring (F1),[24]; after administration to F0 dams,detected
same,effects on maternal reproductive function or development of offspring (F1),[24]; doses up to 2 times human clinical exposure (AUC),no adverse effects
same,platelet production,[25],does not stimulate platelet production
same,platelet production,[26],does not stimulate platelet production
same,platelet production,[27],does not stimulate platelet production
same,mutagenicity/clastogenicity,[28],not mutagenic or clastogenic
same,mutagenicity/clastogenicity,[29],not mutagenic or clastogenic
same,mouse lymphoma assay result,[30]; in vitro,marginally positive
same,increase in mutation frequency,[30]; in vitro mouse lymphoma assay,< 3 fold
same,female fertility,"[31]; doses up to 20 mg/kg/day (2 times human clinical exposure, AUC)",did not affect female fertility
same,male fertility,"[31]; doses up to 40 mg/kg/day, highest dose tested (5 times human clinical exposure, AUC)",did not affect male fertility
same,photoclastogenicity in vitro,[32],photoclastogenic
same,phototoxicity in vitro,[32],phototoxic
same,drug concentrations at which photoclastogenic effects were observed,"[32]; cytotoxic concentrations, UV 30 MED",≥ 15000 ng/mL
same,photoclastogenicity in vitro at lower UV exposure,"[32]; up to 58.4 mcg/mL, UV 15 MED",No evidence of in vitro photoclastogenicity
same,in vivo cutaneous phototoxicity,[33],no evidence
same,liver finding,[34],hepatocellular hypertrophy
same,embryofetal findings,[35],Decreased fetal weights and a slight increase in the presence of cervical ribs
same,major structural malformations,[35],no evidence of major structural malformations
same,"fetotoxicity, embryolethality, or teratogenicity",[36],"no evidence of fetotoxicity, embryolethality, or teratogenicity"
same,photo-ocular toxicity,[37],no evidence
same,photo-ocular toxicity,[38],no evidence
same,liver finding,[39],hepatocellular hypertrophy
same,renal tubular effects after 13 weeks,[39],No similar effects were observed
same,renal tubular toxicity,[39],Renal tubular toxicity was observed
same,duration of dosing after which cataracts were observed,[39]; 6 weeks,6 weeks
same,duration of dosing after which cataracts were observed,[39]; 13 weeks,13 weeks
same,liver finding,[40],hepatocellular hypertrophy
same,liver finding (vacuolation),[40],hepatocellular vacuolation
same,duration of dosing after which cataracts were observed,[40]; 28 weeks,28 weeks
same,duration of dosing after which cataracts were observed,[40]; 39 weeks,39 weeks
same,cataracts,[41],Cataracts were not observed
same,liver finding,[41],hepatocellular hypertrophy
same,renal tubular toxicity,[41],Renal tubular toxicity was not observed
same,mutagenicity/clastogenicity,[42],not mutagenic or clastogenic
same,exposure at the lowest dose relative to human clinical exposure based on AUC,[43],1.4 times

# From US20140142155A1, “METHOD OF TREATING THROMBOCYTOPENIA” (GlaxoSmithKline LLC, priority 2008, published 2014)
